From patent publication US7833513B2, “Treatment of Alzheimer's Disease” (Rhode Island Hospital, priority 2004, dated 2010)

Experiments:
insulin receptor = target: T1, insulin receptor (Rattus norvegicus, UniProt P15127); assay: ic-STZ ± PPAR agonist: equilibrium and saturation binding to insulin receptors in the brain; format: in vivo, Long Evans rat; settings: for BMAX, insulin receptor saturation binding in brains of treated rats: [125I]-insulin tracer, pooled brain membranes, 4 weeks after ic-STZ ± IP PPAR agonist; for mean insulin receptor binding: temporal lobe and cerebellum
T1 construct: from tissue; host or cells: rat brain (temporal lobe)
T1 sequence (P15127 27-759 limits assumed): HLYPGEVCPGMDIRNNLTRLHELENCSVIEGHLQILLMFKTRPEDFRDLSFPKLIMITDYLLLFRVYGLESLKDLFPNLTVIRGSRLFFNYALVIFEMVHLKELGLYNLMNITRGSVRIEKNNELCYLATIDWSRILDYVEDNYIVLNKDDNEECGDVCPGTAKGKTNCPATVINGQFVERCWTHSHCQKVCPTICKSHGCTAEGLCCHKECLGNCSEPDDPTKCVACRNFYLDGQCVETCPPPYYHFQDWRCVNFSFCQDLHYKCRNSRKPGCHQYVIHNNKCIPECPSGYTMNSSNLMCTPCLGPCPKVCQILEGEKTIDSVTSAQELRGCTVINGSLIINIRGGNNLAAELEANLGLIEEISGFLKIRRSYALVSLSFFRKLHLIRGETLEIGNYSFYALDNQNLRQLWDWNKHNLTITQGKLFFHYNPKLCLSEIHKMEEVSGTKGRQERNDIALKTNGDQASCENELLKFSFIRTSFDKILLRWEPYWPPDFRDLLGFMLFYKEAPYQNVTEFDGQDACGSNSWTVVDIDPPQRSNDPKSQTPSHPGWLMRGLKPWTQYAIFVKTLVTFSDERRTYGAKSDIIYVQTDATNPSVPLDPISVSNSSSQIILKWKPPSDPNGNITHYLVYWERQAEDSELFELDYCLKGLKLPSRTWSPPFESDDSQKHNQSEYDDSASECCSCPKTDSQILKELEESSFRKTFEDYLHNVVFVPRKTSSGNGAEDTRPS
T1 sequence (P15127 764-1383 limits assumed): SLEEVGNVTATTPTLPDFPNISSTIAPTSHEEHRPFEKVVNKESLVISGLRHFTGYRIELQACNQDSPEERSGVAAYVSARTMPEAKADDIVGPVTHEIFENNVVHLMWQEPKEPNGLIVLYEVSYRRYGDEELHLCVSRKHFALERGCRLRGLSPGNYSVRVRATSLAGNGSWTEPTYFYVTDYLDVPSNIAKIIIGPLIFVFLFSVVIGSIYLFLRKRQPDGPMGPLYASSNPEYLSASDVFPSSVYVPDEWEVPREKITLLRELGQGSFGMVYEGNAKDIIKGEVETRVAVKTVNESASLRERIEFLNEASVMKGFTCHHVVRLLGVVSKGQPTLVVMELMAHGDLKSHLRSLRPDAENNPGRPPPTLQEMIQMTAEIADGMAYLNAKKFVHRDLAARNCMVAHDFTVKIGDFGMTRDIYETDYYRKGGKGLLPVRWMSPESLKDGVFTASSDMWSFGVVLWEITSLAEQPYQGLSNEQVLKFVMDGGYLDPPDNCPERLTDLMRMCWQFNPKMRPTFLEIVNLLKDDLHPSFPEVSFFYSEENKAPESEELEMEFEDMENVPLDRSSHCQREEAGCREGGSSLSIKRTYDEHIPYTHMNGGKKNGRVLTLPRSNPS
Experimental: On the same day, sub-sets of the ic-STZ group were given a single intra-peritoneal injection of vehicle (saline), or a PPAR-α (GW7647; 25 ug/Kg), PPAR-δ (L-165,041; 2 μg/Kg), or PPAR-γ (F-L-Leu; 20 μg/Kg) activator (CalBiochem, Carlsbad, Calif.). […] In addition, at 4 weeks of age, memory and learning were evaluated using a Morris Water Maze (R. W. Hickey, M. Akino, S. Strausbaugh, G. M. De Courten-Myers. Use of the Morris water maze and acoustic startle chamber to evaluate neurologic injury after asphyxial arrest in rats. Pediatr Res 39(1) (1996), 77-84). The procedures and use of rats in these experiments were approved by the Lifespan-Rhode Island Hospital IACUC committee.
Membrane protein extracted from fresh frozen brain tissue was used for competitive equilibrium and saturation binding assays. For total binding in equilibrium binding assays, duplicate samples were incubated in 100 μl reactions containing binding buffer (100 mM HEPES, pH 8.0, 118 mM NaCl, 1.2 mM MgSO4, 8.8 mM dextrose, 5 mM KCl, 1% bovine serum albumin) and 100 nCi/ml of [^125I] […] To measure total binding in saturation binding assays, samples from 8-12 brains per group were pooled in equal proportions, and duplicate samples were incubated in 100 μl reactions containing binding buffer and 0.0031 to 1 μCi/ml of [^125I] […] To detect non-specific binding in the equilibrium and saturation binding assays, duplicate reactions were incubated with the same concentrations of radiolabeled tracer plus 0.1 μM unlabeled (cold) competitive ligand. After 16 hours incubation at 4° C., bound radiolabeled tracer was precipitated with bovine gamma globulin and polyethylene glycol 8000. The precipitate (bound ligand) and supernatant (free ligand) fractions were counted in an LKB CompuGamma CS Gamma counter. Specific binding was calculated by subtracting fmols of non-specific binding, i.e. amount bound in the presence of excess cold ligand, from total fmols bound in the absence of unlabeled competitive ligand. GraphPad Prism 4 software (San Diego, Calif.) was used to calculate saturation binding (BMAX) and binding affinity (Kd) for each data set.

[1] = tested on: GFAP, GSK-3β, phospho-GSK-3β, ubiquitin, tau, phospho-tau, β-actin; assay: ic-STZ model: Western blot analysis of temporal lobe tissue; format: in vivo, Long Evans rat; settings: 40 mg/kg ic-STZ, Mean±S.E.M.
Experimental: Western blot analysis was used to assess the levels of Akt, phospho-Akt, GSK-3β, phospho-GSK-3β, Tau, and β-actin. […] Protein concentration was determined using the bicinchoninic acid (BCA) assay (Pierce, Rockford, Ill.). Samples containing 100 μg of protein were fractionated by sodium dodecyl sulfate, polyacrylamide gel electrophoresis (SDS-PAGE). (Ausubel et al., Current Protocols in Molecular Biology (2000)). Proteins were transferred to Immobilon-P (Millipore Corporation, Bedford, Mass.) PVDF membranes and non-specific binding sites were adsorbed with SuperBlock-TBS (Pierce, Rockford, Ill.). Membranes were incubated over night at 4° C. with primary antibody (0.5-1 μg/ml) diluted in Tris-buffered saline (TBS; 50 mM Tris, 150 mM NaCl, pH 7.4) containing 1% bovine serum albumin and 0.05% Tween-20 (TBST-BSA). Immunoreactivity was detected using horseradish peroxidase (HRP) conjugated IgG (Pierce, Rockford, Ill.), Western Lightning chemiluminescence reagents (Perkin Elmer Life Sciences Inc., Boston, Mass.), and film autoradiography. All incubations were performed using gentle platform agitation. Immunoreactivity was quantified using the Kodak Digital Science Imaging Station (NEN Life Sciences, Boston, Mass.).
Western blot analysis was used to assess the levels of tau, phospho-tau, ubiquitin, GSK-3β, phospho-GSK-3β, GFAP, and β-actin as described above.
Studies were performed to determine if ic-STZ-induced neurodegeneration was associated with increased activation of GSK-3β (reduced phospho-GSK-3β/total GSK-3β ratio) and increased levels of phospho-tau. Since characteristic features of AD-type neurodegeneration also include increased ubiquitination of proteins, including tau (Godbolt et al., Arch. Neurol. 62:1097 (2005); Kosik et al., Biochim. Biophys. Acta 1739:298 (2005); de Vrij et al., Prog. Neurobiol. 74:249 (2004)) and gliosis associated with cell loss, Western blot analysis was used to measure ubiquitin and GFAP immunoreactivity as well. β-actin expression was measured as a […].
Values correspond to arbitrary densitometry units (Mean±S.E.M.). Results were analyzed using Student t-tests.

In the case of CCCc1c(OCCCOc2ccc(OCC(=O)O)cc2)ccc(C(C)=O)c1O [PPAR-δ agonist, L-165,041], the “BMAX, insulin receptor saturation binding in brains of treated rats” value (shortened to “BMAX … of treated rats”) (insulin receptor) is reported as 2.186 fmol/mg protein, the insulin receptor binding (insulin receptor; hypothalamus) is reported as “significantly increased” and the “mean insulin receptor binding” value (insulin receptor) is reported as “significantly increased”.

In the case of CC(C)C[C@H](NC(=O)OCC1c2ccccc2-c2ccccc21)C(=O)O [PPAR-γ agonist, F-L-Leu], the “BMAX … of treated rats” value (insulin receptor) is reported as 1.127 fmol/mg protein and the “mean insulin receptor binding” value (insulin receptor) is reported as “significantly increased”.

With CC(C)(Sc1ccc(CCN(CCCCC2CCCCC2)C(=O)NC2CCCCC2)cc1)C(=O)O [PPAR-α agonist, GW7647] the “BMAX … of treated rats” value (insulin receptor) was 1.172 fmol/mg protein and the “mean insulin receptor binding” value (insulin receptor) was “significantly increased”.

CN(N=O)C(=O)NC1C(O)OC(CO)C(O)C1O (stereo not shown) [STZ] was tested, and the “BMAX … of treated rats” value (insulin receptor) was 0.8421 fmol/mg protein, the “steady-state insulin receptor binding” value (insulin receptor; temporal lobe, hypothalamus, cerebellum) was “significantly reduced” and the “GFAP protein (Western blot)” value [1] was 983591 ± 113549 arbitrary densitometry units. For the same compound, the “GSK-3β protein (Western blot)” value [1] was 149945 ± 15588 arbitrary densitometry units, the “Tau protein (Western blot)” value [1] was 686442 ± 65138 arbitrary densitometry units and the “Ubiquitin protein (Western blot)” value [1] was 1390824 ± 133586 arbitrary densitometry units. For the same compound, the “p-GSK-3β protein (Western blot)” value [1] was 2811 ± 296 arbitrary densitometry units, the “p-Tau protein (Western blot)” value [1] was 3378 ± 920 arbitrary densitometry units and the “β-Actin protein (Western blot, negative control)” value [1] was 196548 ± 14314 arbitrary densitometry units.
